# Counter-ions that a name gives are not always drawn.
# Biological target: T1, TLR7/NFKb HEK cells (Homo sapiens, UniProt Q9NYK1)
# T1 construct: expressed in transfected cells; host or cells: HEK cells (TLR7/NFKb reporter line)
# T1 sequence (Q9NYK1 27-1049): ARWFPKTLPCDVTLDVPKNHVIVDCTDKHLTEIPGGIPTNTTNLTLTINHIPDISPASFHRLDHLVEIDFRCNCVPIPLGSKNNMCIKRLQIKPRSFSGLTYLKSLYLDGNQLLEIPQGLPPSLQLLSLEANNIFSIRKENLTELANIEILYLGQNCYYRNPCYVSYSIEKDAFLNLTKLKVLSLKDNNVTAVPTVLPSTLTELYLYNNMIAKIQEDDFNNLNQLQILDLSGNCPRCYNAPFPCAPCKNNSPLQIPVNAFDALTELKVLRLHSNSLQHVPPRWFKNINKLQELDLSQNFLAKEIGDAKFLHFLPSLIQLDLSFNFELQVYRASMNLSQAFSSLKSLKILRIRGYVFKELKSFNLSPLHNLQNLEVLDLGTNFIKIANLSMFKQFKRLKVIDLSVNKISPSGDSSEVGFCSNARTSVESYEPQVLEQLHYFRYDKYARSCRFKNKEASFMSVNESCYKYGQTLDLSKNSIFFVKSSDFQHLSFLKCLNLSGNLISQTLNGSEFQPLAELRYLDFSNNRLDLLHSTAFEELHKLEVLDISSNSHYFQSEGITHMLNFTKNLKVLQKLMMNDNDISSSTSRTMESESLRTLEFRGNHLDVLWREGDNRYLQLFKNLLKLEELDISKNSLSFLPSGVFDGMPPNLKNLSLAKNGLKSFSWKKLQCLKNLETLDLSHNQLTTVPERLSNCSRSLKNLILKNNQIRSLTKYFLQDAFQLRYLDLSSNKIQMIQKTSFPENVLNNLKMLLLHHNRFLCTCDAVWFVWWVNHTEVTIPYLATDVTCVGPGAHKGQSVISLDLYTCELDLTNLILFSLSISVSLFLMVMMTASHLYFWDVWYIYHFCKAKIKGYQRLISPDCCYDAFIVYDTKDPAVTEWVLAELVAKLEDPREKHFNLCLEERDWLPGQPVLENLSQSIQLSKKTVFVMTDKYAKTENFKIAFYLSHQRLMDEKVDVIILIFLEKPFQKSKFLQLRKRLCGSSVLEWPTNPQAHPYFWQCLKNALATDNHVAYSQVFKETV
# Experiment: HEK Cell Assay (TLR7/NFKb reporter, Steady-Glo luciferase readout)
# Assay type: cell-based
# Settings: 30 min compound preincubation, then R*48 agonist for 5 hours, read-out: Potency
# Procedure, shortened: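 Steady-Glo luminescence after 5 h stimulation with R*48 agonist, following 30 min compound preincubation. Assay run in HEK cells carrying a TLR7/NFKb luciferase reporter, plated at 5000 cells/well and grown 24 h at 37° C (10% CO2) before treatment.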
row,SMILES,IC50
1,"CC(C)[C@H](O)C(=O)NC1CC(C(F)(F)F)CN(c2ccc(C#N)c3ncccc23)C1 (single isomer, unassigned) [Compound 430]",< 1000 nM
2,"CCN1CCC[C@H]1C(=O)NC1CC(C(F)(F)F)CN(c2ccc(C#N)c3ncccc23)C1 (single isomer, unassigned) [Compound 437]",1000 to 10000 nM
3,"CCN1CCC[C@H]1C(=O)NC1CC(C(F)(F)F)CN(c2ccc(C#N)c3ncccc23)C1 (single isomer, unassigned) [Compound 438]",1000 to 10000 nM
4,"O=C(NC1CCN(CC2CC2)C1)C1CCN(c2ccc(C(F)(F)F)c3ncccc23)CC1 (single isomer, unassigned) [Compound 444]",< 1000 nM
5,"O=C(NC1CCN(CC2CC2)C1)C1CCN(c2ccc(C(F)(F)F)c3ncccc23)CC1 (single isomer, unassigned) [Compound 445]",< 1000 nM
6,"CN(C)CC(=O)NC1CN(c2ccc(C#N)c3ncccc23)CC(F)(F)C1 (single isomer, unassigned) [Compound 449]",< 1000 nM
7,"CN(C)CC(=O)NC1CN(c2ccc(C#N)c3ncccc23)CC(F)(F)C1 (single isomer, unassigned) [Compound 450]",1000 to 10000 nM
8,"N#Cc1ccc(N2CC(NC(=O)C(N)C3CC3)CC(C(F)(F)F)C2)c2cccnc12 (single isomer, unassigned) [Compound 487]",< 1000 nM
9,"N#Cc1ccc(N2CC(NC(=O)CCC(=O)N3CCC3)CC(C(F)(F)F)C2)c2cccnc12 (single isomer, unassigned) [Compound 494]",> 10000 nM
10,"N#Cc1ccc(N2CC(NC(=O)CCC(=O)N3CCC3)CC(C(F)(F)F)C2)c2cccnc12 (single isomer, unassigned) [Compound 495]",1000 to 10000 nM
11,"N#Cc1ccc(N2CC(NC(=O)CC3(N)CCCCC3)CC(C(F)(F)F)C2)c2cccnc12 (single isomer, unassigned) [Compound 497]",< 1000 nM
12,"N#Cc1ccc(N2CC(NC(=O)CC3(N)CCCCC3)CC(C(F)(F)F)C2)c2cccnc12 (single isomer, unassigned) [Compound 498]",< 1000 nM
13,"CC(C(=O)NC1CN(c2ccc(C#N)c3nccnc23)CC(F)(F)C1)N1CCC1 (single isomer, unassigned) [Compound 507]",< 1000 nM
14,"CC(C(=O)NC1CN(c2ccc(C#N)c3nccnc23)CC(F)(F)C1)N1CCC1 (single isomer, unassigned) [Compound 508]",1000 to 10000 nM
15,"C[C@H]1C[C@@H](NC(=O)C(O)C2CC2)CN(c2ccc(C(F)(F)F)c3ncccc23)C1 (single isomer, unassigned) [Compound 520]",< 1000 nM
16,"C[C@H]1C[C@@H](NC(=O)C(O)C2CC2)CN(c2ccc(C(F)(F)F)c3ncccc23)C1 (single isomer, unassigned) [Compound 521]",< 1000 nM
17,"CN1CCC(CC(=O)NC2CN(c3ccc(C#N)c4nccnc34)CC(F)(F)C2)CC1 (single isomer, unassigned) [Compound 522]",< 1000 nM
18,"CN1CCC(CC(=O)NC2CN(c3ccc(C#N)c4nccnc34)CC(F)(F)C2)CC1 (single isomer, unassigned) [Compound 523]",< 1000 nM
19,"NC1CN(c2ccc(C(F)(F)F)c3ncccc23)CC(F)(F)C1 (single isomer, unassigned) [Compound 527]",< 1000 nM
20,"NC1CN(c2ccc(C(F)(F)F)c3ncccc23)CC(F)(F)C1 (single isomer, unassigned) [Compound 528]",1000 to 10000 nM
21,"CC1CC(CN2CCN(C)CC2)CN(c2ccc(C(F)(F)F)c3ncccc23)C1 (single isomer, unassigned) [Compound 533, cis-5-[3-Methyl-5-(4-methyl-piperazin-1-ylmethyl)-piperidin-1-yl]-8-trifluoromethyl-quinoline]",< 1000 nM

row,SMILES,IC50
1,"CC1CC(CN2CCN(C)CC2)CN(c2ccc(C(F)(F)F)c3ncccc23)C1 (single isomer, unassigned) [Compound 534, trans-5-[3-Methyl-5-(4-methyl-piperazin-1-ylmethyl)-piperidin-1-yl]-8-trifluoromethyl-quinoline]",1000 to 10000 nM
2,"CN1CCC(CNC(=O)C2CN(c3ccc(C#N)c4ncccc34)CC(F)(F)C2)CC1 (single isomer, unassigned) [Compound 545]",1000 to 10000 nM
3,"CN1CCC(CNC(=O)C2CN(c3ccc(C#N)c4ncccc34)CC(F)(F)C2)CC1 (single isomer, unassigned) [Compound 546]",< 1000 nM
4,"COc1ccc(N2C[C@@H](C)C[C@@H](NC(=O)C(O)C(C)C)C2)c2nccnc12 (stereo in doubt) [Compound 201, (2R)-2-hydroxy-N-[(3R,5S)-1-(8-methoxyquinoxalin-5-yl)-5 methylpiperidin-3-yl]-3-methylbutanamide]",1000 to 10000 nM
5,"CCN(CC)CCNC(=O)C1CCN(c2ccnc3ncccc23)CC1 [Compound 1, N-(2-(diethylamino)ethyl)-1-(1,8-naphthyridin-4-yl)piperidine-4-carboxamide]",> 10000 nM
6,"CCN(CC)C1CCN(C(=O)C2CCN(c3ccnc4nccnc34)CC2)CC1 [Compound 2, (4-(diethylamino)piperidin-1-yl)(1-(pyrido[2,3-b]pyrazin-8-yl)piperidin-4-yl)methanone]",1000 to 10000 nM
7,"Cn1ncc2c(N3CCC(C(=O)NCCN4CCCCC4)CC3)ncnc21 [Compound 3, 1-(1-methyl-1H-pyrazolo[3,4-d]pyrimidin-4-yl)-N-(2-(piperidin-1-yl)ethyl)piperidine-4-carboxamide]",1000 to 10000 nM
8,"CCN(CC)C1CCN(CC2CCN(c3ccnc4nccnc34)CC2)CC1 [Compound 4, N,N-diethyl-1-((1-(pyrido[2,3-b]pyrazin-8-yl)piperidin-4-yl)methyl)piperidin-4-amine]",1000 to 10000 nM
9,"CCN(CC)C1CCN(CC2CCN(c3ccnc4ccccc34)CC2)CC1 [Compound 5, N,N-diethyl-1-((1-(quinolin-4-yl)piperidin-4-yl)methyl)piperidin-4-amine]",1000 to 10000 nM
10,"c1ccc2c(N3CCC(COCCN4CCCCC4)CC3)ccnc2c1 [Compound 6, 4-(4-[[2-(piperidin-1-yl)ethoxy]methyl]piperidin-1-yl)quinoline]",1000 to 10000 nM
11,"c1ccc2c(N3CCC(CNCCN4CCOCC4)CC3)ccnc2c1 [Compound 7, 2-morpholino-N-((1-(quinolin-4-yl)piperidin-4-yl)methyl)ethanamine]",> 10000 nM
12,"O=C(CN1CCCCC1)NCC1CCN(c2ccnc3ccccc23)CC1 [Compound 8, 2-(Piperidin-1-yl)-N-((1-(quinolin-4-yl)piperidin-4-yl)methyl)acetamide]",1000 to 10000 nM
13,"Cc1cc2c(N3C[C@@H](C)C[C@@H](N)C3)ccnc2n1C [Compound 9, (3R,5S)-1-(1,2-dimethyl-1H-pyrrolo[2,3-b]pyridin-4-yl)-5-methylpiperidin-3-amine]",> 10000 nM
14,"C[C@H]1C[C@@H](N)CN(c2ccnc3nccnc23)C1 [Compound 10, (3R,5S)-5-methyl-1-(pyrido[2,3-b]pyrazin-8-yl)piperidin-3-amine]",< 1000 nM
15,"C[C@H]1C[C@@H](N)CN(c2ccnc3ccccc23)C1 [Compound 11, (3R,5S)-5-methyl-1-(quinolin-4-yl)piperidin-3-amine]",1000 to 10000 nM
16,"C[C@H]1C[C@@H](N)CN(c2ccc(C#N)c3nccnc23)C1 [Compound 12, 8-((3R,5S)-3-amino-5-methylpiperidin-1-yl)quinoxaline-5-carbonitrile]",< 1000 nM
17,"Cc1cc2c(N3C[C@@H](C)C[C@@H](NC(=O)CO)C3)ccnc2n1C [Compound 13, N-((3R,5S)-1-(1,2-dimethyl-1H-pyrrolo[2,3-b]pyridin-4-yl)-5-methylpiperidin-3-yl)-2-hydroxyacetamide]",> 10000 nM
18,"C[C@H]1C[C@@H](NC(=O)CO)CN(c2ccnc3ccccc23)C1 [Compound 14, 2-hydroxy-N-((3R,5S)-5-methyl-1-(quinolin-4-yl)piperidin-3-yl)acetamide]",> 10000 nM
19,"C[C@H]1C[C@@H](NC(=O)CO)CN(c2ccnc3nccnc23)C1 [Compound 15, 2-hydroxy-N-((3R,5S)-5-methyl-1-(pyrido[2,3-b]pyrazin-8-yl)piperidin-3-yl)acetamide]",> 10000 nM
20,"CN[C@@H]1C[C@H](C)CN(c2ccc(C#N)c3nccnc23)C1 [Compound 16, 8-((3S,5R)-3-methyl-5-(methylamino)piperidin-1-yl)quinoxaline-5-carbonitrile hydrochloride]",< 1000 nM
21,"CN[C@@H]1C[C@H](C)CN(c2ccnc3nccnc23)C1 [Compound 17, (3R,5S)—N,5-dimethyl-1-(pyrido[2,3-b]pyrazin-8-yl)piperidin-3-amine]",> 10000 nM

# — patent publication US10947213B1 (Merck Patent GmbH, priority 2015, dated 2021)
